Data on 1 compound can be found in US20170223976A1, “MODIFIED MILK POWDER CONTAINING 1,5-ANHYDRO-D-GLUCITOL” (NIHON STARCH CO., LTD., priority 2015, published 2017).

The conditions of series [1]: cited from earlier work.
A further series relates to CSH-1 gene. Put plainly: CSH-1 gene expression in placental trophoblastic cells, real-time RT-PCR. The note with it: 160 μg/mL 1,5-AG, after 72 hours. The format is cell-based, human. The method, then: The influence upon these two genes (PSG-1 and CSH-1) of 1,5-AG was analyzed by a real-time RT-PCR method using placental trophoblastic cells. As a preliminary study, the expression level of PSG-1 was analyzed at three concentrations (1 μg/mL or less, 40 μg/mL and 160 μg/mL of 1,5-AG) and for three sampling times (3, 24 and 72 hours). A test was conducted by the following method.
Human placental villous trophoblastic cells (ScienCell Research Laboratories)
The human placental villous trophoblastic cells were initiated in a T-75 flask by using a trophoblast medium (to be simply referred to as “medium” hereinafter) to be cultured in a CO2 incubator (5% CO2, 37° C., moistening). […] Then, the supernatant was removed by centrifugation (180 g, 5 minutes), a new medium was added to stir the cells, the number of the cells was counted by using a corpuscle calculating board, and a medium was used to achieve a target concentration (4.0×10^3 cells/100 μL). […]
The PCR reaction was carried out under the conditions of 95° C.·30 sec−(95° C.·10 sec−60° C.·30 sec)×45 cycles−95° C.·15 sec−55° C.·15 sec−95° C.·15 sec, and the dissociation curve of the PCR product was obtained after the end of the PCR reaction. The relative expression level was calculated by the ? […]

Another series relates to type 2 diabetes model. Particulars: in vivo; cited from earlier work.
For another series, the system named is PC12 cells. The series is described as follows: Fluorescence determination of number of living cells and amount of neurite outgrowth (neurite outgrowth staining kit). The format is cell-based. As to the method: A test was carried out at five concentrations (1.6, 8, 40, 200 and 1,000 μg/mL) of 1,5-AG. Stated more specifically, a 1,5-AG aqueous solution having a concentration of 100 mg/mL was diluted with water to prepare 100 times-concentrated solutions having concentrations of 0.16, 0.8, 4, 20 and 100 mg/mL. These 100 times-concentrated solutions were each added to a test medium in a ratio of 1/100 to achieve final concentrations of 1.6, 8, 40, 200 and 1,000 μg/mL and sterilized with a filter to be used in the test. As a negative control, water was added to a medium in a ratio of 1/100 and sterilized with a filter to be used in the test. As a positive control, a test medium containing a 100 ng/mL nerve growth factor (NGF) was used.
A growth medium was used to adjust the cells to a concentration of 2.0×10^3 cells/100 μL/well, and the cells were scattered in a collagen-coated 96-well plate to be cultured in a CO2 incubator (5% CO2, 37° C., moistening) for 24 hours. After culture, the medium was replaced by a sample-containing test medium (100 μL), and the cells were cultured in a CO2 incubator for 96 hours. After the end of culture, an image of the cells in each well was taken with a phase difference microscope and used for the measurement of nuetrite outgrowth rate, and nuclei and cytoplasms were fluorescent dyed by using a neurite outgrowth staining kit to measure the number of living cells and the amount of neurite outgrowth. These procedures were carried out five times each.
After the end of culture, the number of living cells and the amount of neurite outgrowth were determined by using a neurite outgrowth staining kit. Stated more specifically, after the medium was removed, 100 μL of a staining solution (prepared by diluting Cell Viability Indicator and Cell Membrane Stain attached to the kit with calcium magnesium-containing PBS 1,000 times) was added to each well to incubate the cells at 37° C. for 20 minutes. After incubation, the staining solution was removed, 100 μL of a background suppression solution (prepared by diluting the background suppression dye attached to the kit with calcium magnesium-containing PBS 100 times) was added to each well so as to measure fluorescence intensity with a micro plate reader (measurement of the number of living cells: excitation wavelength of 495 nm, fluorescence wavelength of 515 nm, measurement of the amount of neurite outgrowth: excitation wavelength of 555 nm, fluorescent wavelength of 565 nm).

Series [2] concerns type 2 diabetes model mice. Particulars: mouse, in vivo; cited from earlier work.
The subject of a further series is insulinoma cell lines. Particulars: cited from earlier work.
Where [3] appears, read: excessive amount of 1,5-AG taken as food.

Regarding `OC[C@H]1OC[C@H](O)[C@@H](O)[C@@H]1O` [1,5-AG, 1,5-anhydro-D-glucitol], in series [1] (setting [3]), the “temporary rise of the concentration of 1,5-AG in the blood” value was “about 100 times” and the “time for the 1,5-AG level in the blood to return to the original level” value is “about 24 hours”. For the same compound, the “time for the 1,5-AG level in the blood to return to the original value” in series [1] (ingested temporarily, for example 20 g, eliminated through urine) was “about 24 hours”. Further, the “expression level of CSH-1 gene relative to non-added section” value in the series with CSH-1 gene is 0.92 time. Besides, the anti-diabetic effect entry with type 2 diabetes model is “anti-diabetic effect”. Further, the “amount of neurite outgrowth as compared with the non-added section” value in the series on PC12 cells (8 μg/mL section) is reported as 113.4%. Moreover, the “amount of neurite outgrowth as compared with the non-added section” value in the series with PC12 cells (40 μg/mL section) was 113.3%. Further, the “number of living cells” value in the series with PC12 cells (all test sections versus negative control, 96 hours) was “about the same as that of a negative control”. For the same compound, the anti-inflammatory effect result in series [2] was “anti-inflammatory effect”. The secretion of insulin entry in the series on insulinoma cell lines was “promotes the secretion of insulin”.
